# In PMC12750388, “Coumarin-1,2,3-Triazole Conjugates as Molecular Scaffolds for the Selective Induction of ROS-Driven Apoptosis in Cancer Cells in the Development of Pyruvate Kinase M2 Inhibitors” (ACS Omega, 2025):
# Key:
# SCC-4 = experiment: MTT cell viability assay, SCC-4; assay type: cell-based, human; settings: for SI SCC-4: IC50 human gingival fibroblast / IC50 SCC-4; for IC50: MTT, 48 h
# Method: (§1) The viability of SCC cell lines and primary human fibroblast cells was evaluated using the MTT assay to determine half maximal inhibitory concentration (IC50). Briefly, cells were grown in triplicate in 96-well plates (5 × 10^3 cells/well) until confluence. Then the medium was removed, fresh medium was added, and the cells were returned to the incubator in the presence of different compounds. DMSO at the same concentrations was used as a 100% cell viability control. After 48 h, cells were incubated with 5 mg/mL MTT reagent (3-(4,5-dimethyl-2-thiazolyl)-2,5-diphenyl-2-H-tetrazolium bromide) (Sigma-Aldrich Co., St. Louis, MO, USA) for 3.5 h. After that, formazan crystals were dissolved in MTT solvent solution (DMSO/methanol 1:1 v/v), and the absorbance at 560 nm was evaluated using an EPOCH microplate spectrophotometer (BioTek Instruments, Winooski, VT, USA) with the background absorbance at 670 nm subtracted. Each of the 12 compounds (7a–7l) was tested at six different concentrations, ranging from 6.25 to 200 μM in cancer and normal cell lines. Control (carboplatin) was tested at six different concentrations ranging from 25 μM to 800 μM in cancer cells and from 50 μM to 1600 μM in normal cells.
# (§2) Half-maximal inhibitory concentration (IC50) values were obtained from the MTT assay of at least three independent replicates through nonlinear regression analysis using GraphPad Prism 5.0 software (Intuitive Software for Science, San Diego, CA, USA). Data were presented as means ± standard deviation (SD). A log dose–response curve (inhibitor vs response) using the least-squares method was used to determine the IC50 and SD from the data. The selectivity index (SI) was calculated as the ratio between the IC50 in normal cells and the IC50 in cancer cells, obtained by dividing the IC50 of normal cells by the IC50 of cancer cells.
# SCC-9 cell line = experiment: MTT cell viability assay, SCC-9; assay type: cell-based, human; settings: for SI SCC-9: IC50 human gingival fibroblast / IC50 SCC-9; for IC50: MTT, 48 h
# Method: as §1, §2
# erythrocytes = experiment: Hemolysis assay; assay type: cell-based; settings: human erythrocytes, 300 μM
# Method: A hemolysis assay to evaluate surfactant effects of tested substances was performed using human blood approved by the Research Ethics Committee of Universidade Federal Fluminense (CAAE: 43134721.4.0000.5626). Erythrocytes are isolated upon three repeated centrifugation cycles at 1500 rpm for 15 min. Between each cycle of centrifugation, supernatant was removed, and a pH 7.5 PBS (phosphate-buffered saline) solution supplemented with 10 mM glucose was added to remove lysed erythrocytes. The number of cells was determined in an Automatic Cell Counter (Thermo Fisher, Waltham, MA, USA). Erythrocytes were then plated in 96-well plates at a concentration of 4 × 10^8 cells/well in triplicates, and 10 μL of compounds were added at a final concentration of 300 μM in PBS with glucose (final volume 100 μL). Ten μL of PBS was used as a negative control, and 10 μL of PBS with 0.1% Triton X-100 was used as a positive control. Data reading was performed with EPOCH (BioTek Instruments, Winooski, VT, USA) at an absorbance of 540 nm.
# [1] = system: Primary Gingival Fibroblast; experiment: MTT cell viability assay, normal cells; assay type: cell-based, human; settings: for IC50: MTT, 48 h, normal cells; for Average SI: average of SI for SCC-9, SCC-4 and SCC-25 versus gingival fibroblast
# Method: as §1, §2
# SCC-25 = experiment: MTT cell viability assay, SCC-25; assay type: cell-based, human; settings: for SI SCC-25: IC50 human gingival fibroblast / IC50 SCC-25; for IC50: MTT, 48 h
# Method: as §1, §2
# SCC-9 cells = experiment: MTT cell viability with N-acetyl-L-cysteine pretreatment; assay type: cell-based, human; settings: SCC-9, 48 h; 7f 1 × IC50, menadione 20 μM
# Method: The production of reactive oxygen species (ROS) was assessed by the detection of hydrogen peroxide (H2O2) using the ROS-Glo H2O2 assay kit (Promega Corporation, Madison, WI, USA; G8820). […] A plate with wells without cells was used as a control. Cells and cell-free wells remained in treatment at times of interest, and 2 h before completion of the times, well volumes were removed to reduce to 40 μL per well. Then the positive control of menadione (Sigma-Aldrich Co., St. Louis, MO, USA), a polycyclic aromatic ketone based on 1,4-naphthoquinone, was used to treat its respective well, and H2O2 substrate from the kit was added for all treatments, followed by the incubation of the plate for the remaining 2 h. Then the detection solution was added, and the plates remained at room temperature for 20 min, following the reading in the TD 20/20 luminometer (Turner Designs, Sunnyvale, CA, USA). The reading of bioluminescence detected is indicated as arbitrary units (a.u.). Additionally, the cell viability was assessed through pretreatment of cells with 10 mM N-acetyl-L-cysteine (NAC) (Sigma-Aldrich Co., St. Louis, MO, USA) for 2 h. […] At the end of the time, the MTT cell viability assay was performed.
compound,measurement,setting,value
"N.N.O=C([O-])C1(C(=O)[O-])CCC1.[Pt+2] [Carboplatin, reference compound]",SI SCC-4,SCC-4,2.45
same,IC50,SCC-4,142 µM
same,SI SCC-9,SCC-9 cell line,2.31
same,IC50,SCC-9 cell line,150 µM
same,hemolytic activity / membrane integrity,erythrocytes,neither carboplatin nor PBS affected the membrane integrity
same,IC50,[1],348 µM
same,Average SI,[1],2.05
same,SI SCC-25,SCC-25,1.40
same,IC50,SCC-25,249 µM
"O=C1C=C(NCc2cn(CCOc3cc(=O)oc4ccccc34)nn2)C(=O)c2ccccc21 [Compound 7a, 2-(((1-(2-((2-Oxo-2H-chromen-4-yl)oxy)ethyl)-1H-1,2,3-triazol-4-yl)methyl)amino) naphthalene-1,4-dione]",IC50,"SCC-9 cell line; Homo sapiens, SCC-9",> 200 µM
"O=C1C=C(OCc2cn(CCOc3cc(=O)oc4ccccc34)nn2)C(=O)c2ccccc21 [Compound 7b, 2-((1-(2-((2-Oxo-2H-chromen-4-yl)oxy)ethyl)-1H-1,2,3-triazol-4-yl)methoxy) naphthalene-1,4-dione]",IC50,"SCC-9 cell line; Homo sapiens, SCC-9",> 200 µM
"CC(C)=CC1=C(OCc2cn(CCOc3cc(=O)oc4ccccc34)nn2)C(=O)c2ccccc2C1=O [Compound 7c, 2-(2-Methylprop-1-en-1-yl)-3-((1-(2-((2-oxo-2H-chromen-4-yl)oxy)ethyl)-1H-1,2,3-triazol-4-yl)methoxy)naphthalene-1,4-dione]",IC50,"SCC-4; Homo sapiens, SCC-4",17 µM
same,SI SCC-4,SCC-4,1.82
same,IC50,"SCC-9 cell line; Homo sapiens, SCC-9",28.9 µM
same,SI SCC-9,SCC-9 cell line,1.07
same,IC50,"[1]; Homo sapiens, Fibroblast",30.9 µM
same,Average SI,[1],1.32
same,IC50,"SCC-25; Homo sapiens, SCC-25",28.5 µM
same,SI SCC-25,SCC-25,1.08
"CC(C)=CCC1=C(OCc2cn(CCOc3cc(=O)oc4ccccc34)nn2)C(=O)c2ccccc2C1=O [Compound 7d, 2-(3-Methylbut-2-en-1-yl)-3-((1-(2-((2-oxo-2H-chromen-4-yl)oxy)ethyl)-1H-1,2,3-triazol-4-yl)methoxy)naphthalene-1,4-dione]",IC50,"SCC-9 cell line; Homo sapiens, SCC-9",> 150 µM
"O=C1C=C(NCc2cn(CCCOc3cc(=O)oc4ccccc34)nn2)C(=O)c2ccccc21 [Compound 7e, 2-(((1-(3-((2-Oxo-2H-chromen-4-yl)oxy)propyl)-1H-1,2,3-triazol-4-yl)methyl)amino) naphthalene-1,4-dione]",IC50,"SCC-9 cell line; Homo sapiens, SCC-9",> 150 µM
"O=c1cc(OCCCn2cc(COc3cc(=O)oc4ccccc34)nn2)c2ccccc2o1 [Compound 7g, 4-(3-(4-(((2-Oxo-2H-chromen-4-yl)oxy)methyl)-1H-1,2,3-triazol-1-yl)propoxy)-2H-chromen-2-one]",IC50,"SCC-9 cell line; Homo sapiens, SCC-9",> 150 µM
"CC(=O)OCc1cn(CCCOc2cc(=O)oc3ccccc23)nn1 [Compound 7h, (1-(3-((2-Oxo-2H-chromen-4-yl)oxy)propyl)-1H-1,2,3-triazol-4-yl)methyl acetate]",IC50,"SCC-9 cell line; Homo sapiens, SCC-9",> 200 µM
"O=c1cc(OCCn2cc(-c3ccccc3)nn2)c2ccccc2o1 [Compound 7i, 4-(2-(4-Phenyl-1H-1,2,3-triazol-1-yl)ethoxy)-2H-chromen-2-one]",IC50,"SCC-9 cell line; Homo sapiens, SCC-9",> 200 µM
"CCCCCCc1cn(CCOc2cc(=O)oc3ccccc23)nn1 [Compound 7j, 4-(2-(4-Hexyl-1H-1,2,3-triazol-1-yl)ethoxy)-2H-chromen-2-one]",IC50,"SCC-9 cell line; Homo sapiens, SCC-9",> 200 µM
"CCCCCCc1cn(CCCOc2cc(=O)oc3ccccc23)nn1 [Compound 7l, 4-(3-(4-Hexyl-1H-1,2,3-triazol-1-yl)propoxy)-2H-chromen-2-one]",IC50,"SCC-9 cell line; Homo sapiens, SCC-9",> 150 µM
"CC1=CC(=O)c2ccccc2C1=O [menadione, reference compound]",cell viability in the presence of 10 mM N-acetyl-L-cysteine (NAC),SCC-9 cells,NAC protected cell death
